The source of these data is ChEMBL document CHEMBL3992556, “5-Ethynylarylnaphthalimides as antitumor agents: Synthesis and biological evaluation” (Bioorg Med Chem, 2017).

Test [1] relates to SK-BR-3. In words: Antiproliferative activity against human SK-BR-3 cells after 48 hrs by MTT assay. In kind it is functional, cell-based. To be noted: SK-BR-3, 48 h. In general terms: Tetrazolium dyes change colour on reduction, which living cells bring about.
Test [2] concerns Saccharomyces cerevisiae. In words: Induction of DNA damage in Saccharomyces cerevisiae FM588 expressing rad52 gene assessed as growth inhibition at 5 to 100 uM after 24 hrs. Format: functional.
The target in test [3] is DNA topoisomerase 2-alpha (Homo sapiens) (UniProt P11388). In words: Poison activity at human topoisomerase-2 alpha assessed as increase in supercoiled pRYG DNA cleavage at 100 uM after 10 min.
The target is the same in test [4]. In words: Inhibition of human topoisomerase-2 alpha assessed as reduction in relaxation of supercoiled pRYG DNA at 100 uM after 30 min by agarose gel electrophoresis.
Test [5] has as its system HL-60. Briefly: Antiproliferative activity against human HL60 cells after 48 hrs by MTT assay. Format: functional, cell-based. The note with it: HL-60, 48 h.
Test [6] relates to Saccharomyces cerevisiae. In words: Induction of DNA damage in Saccharomyces cerevisiae FM888 harboring rad52 deletion mutant assessed as growth inhibition at 5 to 100 uM after 24 hrs. In kind it is functional.
The subject of test [7] is HEL. Briefly: Antiproliferative activity against human HEL cells after 48 hrs by MTT assay. Format: functional, cell-based.

The source made the active and inactive calls. The calls are words filed in the database; no cut-off is given here. Bounds are passed on as bounds.

One may read the IC50 as the concentration that inhibits the measured activity by half.

Chain of DNA topoisomerase 2-alpha (Homo sapiens) (P11388 whole entry): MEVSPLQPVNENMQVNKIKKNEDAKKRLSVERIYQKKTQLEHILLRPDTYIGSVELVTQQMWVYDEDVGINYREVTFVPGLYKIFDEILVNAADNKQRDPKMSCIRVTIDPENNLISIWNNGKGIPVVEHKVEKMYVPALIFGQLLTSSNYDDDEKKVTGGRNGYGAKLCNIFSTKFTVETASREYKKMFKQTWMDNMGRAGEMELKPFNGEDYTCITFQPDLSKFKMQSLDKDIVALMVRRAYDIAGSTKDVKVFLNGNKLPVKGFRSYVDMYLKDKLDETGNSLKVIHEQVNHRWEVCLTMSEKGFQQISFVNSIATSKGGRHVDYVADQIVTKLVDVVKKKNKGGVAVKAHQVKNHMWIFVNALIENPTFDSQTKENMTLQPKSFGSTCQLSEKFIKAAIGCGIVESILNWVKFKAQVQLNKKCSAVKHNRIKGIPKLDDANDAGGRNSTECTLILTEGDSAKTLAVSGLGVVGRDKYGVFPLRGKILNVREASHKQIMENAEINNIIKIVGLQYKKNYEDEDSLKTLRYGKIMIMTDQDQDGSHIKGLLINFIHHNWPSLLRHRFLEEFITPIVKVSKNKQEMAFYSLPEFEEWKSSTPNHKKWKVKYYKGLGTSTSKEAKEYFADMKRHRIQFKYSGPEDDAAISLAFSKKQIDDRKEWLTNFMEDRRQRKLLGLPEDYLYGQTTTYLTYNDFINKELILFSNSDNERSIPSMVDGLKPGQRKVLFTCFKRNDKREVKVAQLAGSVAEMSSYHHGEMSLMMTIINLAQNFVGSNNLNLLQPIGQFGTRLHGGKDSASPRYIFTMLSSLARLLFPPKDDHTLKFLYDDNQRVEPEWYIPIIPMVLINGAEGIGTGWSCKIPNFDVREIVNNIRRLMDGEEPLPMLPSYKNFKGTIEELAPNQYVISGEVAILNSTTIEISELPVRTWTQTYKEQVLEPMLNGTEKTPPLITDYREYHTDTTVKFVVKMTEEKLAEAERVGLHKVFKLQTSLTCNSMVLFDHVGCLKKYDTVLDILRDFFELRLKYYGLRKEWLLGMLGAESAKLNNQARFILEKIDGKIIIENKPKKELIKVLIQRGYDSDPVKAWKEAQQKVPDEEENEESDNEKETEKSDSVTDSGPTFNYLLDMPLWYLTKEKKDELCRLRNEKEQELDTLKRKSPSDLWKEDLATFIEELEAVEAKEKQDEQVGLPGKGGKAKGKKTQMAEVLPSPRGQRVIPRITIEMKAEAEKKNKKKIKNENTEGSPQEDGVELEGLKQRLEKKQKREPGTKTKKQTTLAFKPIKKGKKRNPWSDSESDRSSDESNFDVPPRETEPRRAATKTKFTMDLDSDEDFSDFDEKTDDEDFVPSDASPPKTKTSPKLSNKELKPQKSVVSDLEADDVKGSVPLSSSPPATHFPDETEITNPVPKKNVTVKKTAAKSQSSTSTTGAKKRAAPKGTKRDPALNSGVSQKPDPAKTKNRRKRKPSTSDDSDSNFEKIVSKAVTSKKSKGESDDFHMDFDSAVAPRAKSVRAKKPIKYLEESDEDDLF

In the case of `CN(C)CCN1C(=O)c2cccc3cc(C#Cc4ccsc4)cc(c23)C1=O`, the 50% inhibitory concentration (IC50) was greater than 10 µM in test [1], 5.4 µM in test [5] and 5 µM in test [7]. Also, the result in test [2], in test [3] and in test [6] was Active. For the same molecule, the “Topoisomerase 2-alpha inhibition (active/not active)” value in test [4] is “Active”.

With `C#Cc1cc2c3c(cccc3c1)C(=O)N(CCN(C)C)C2=O`, the IC50 is greater than 10 µM in test [1], 10 µM in test [5] and 8.1 µM in test [7]. In addition, the result in test [2] and in test [6] was Active.

As for `CN(C)CCN1C(=O)c2cccc3cc(C#Cc4ccccc4)cc(c23)C1=O`, the 50% inhibitory concentration (IC50) in test [1] stood at 4.6 µM; in test [5], 4.6 µM; in test [7], 1.4 µM. Also, the result in test [2] and in test [6] was Active. The “Topoisomerase 2-alpha inhibition (active/not active)” value in test [4] was “Active”.

`CN(C)CCN1C(=O)c2cccc3cc(C#Cc4ccoc4)cc(c23)C1=O`: the IC50 was found to be 9.6 µM in test [1], 3.5 µM in test [5] and 5.6 µM in test [7]. Further, the outcome in test [2] and in test [6] was Active. Besides, in test [4], the “Topoisomerase 2-alpha inhibition (active/not active)” value is “Active”.

As for `COc1cc([C@@H]2c3cc4c(cc3[C@@H](O[C@@H]3O[C@@H]5CO[C@@H](C)O[C@H]5[C@H](O)[C@H]3O)[C@H]3COC(=O)[C@H]23)OCO4)cc(OC)c1O`, in test [3], the outcome was Active.

As to `CN(C)CCN1C(=O)c2cccc3cc(C#Cc4cccc([N+](=O)[O-])c4)cc(c23)C1=O`, the results for the IC50 in test [1], in test [5] and in test [7] were greater than 10 µM, 13.6 µM and 21.7 µM, respectively. For the same molecule, the result in test [2] and in test [6] was Active.

Turning to `CN(C)CCN1C(=O)c2cccc3cc(N)cc(c23)C1=O` [AMONAFIDE], the IC50 in test [5] came out at 3.4 µM; in test [7], 4 µM.

On to `COc1cccc(C#Cc2cc3c4c(cccc4c2)C(=O)N(CCN(C)C)C3=O)c1`, for which the half-inhibitory concentration (IC50) in test [1] amounted to 2 µM; in test [5], 1 µM; in test [7], 1 µM. Also, the result in test [2] and in test [6] was Active.

`CN(C)CCN1C(=O)c2cccc3cc(C#Cc4cccc(C(F)(F)F)c4)cc(c23)C1=O`: the figures for the IC50 in test [1], in test [5] and in test [7] were 0.1 µM, 2.3 µM and 2.2 µM, respectively. In addition, the result in test [2] and in test [6] was Active. In addition, the “Topoisomerase 2-alpha inhibition (active/not active)” value in test [4] was “inactive”.

Regarding `CN(C)CCN1C(=O)c2cccc3cc(C#Cc4cccc(O)c4)cc(c23)C1=O`, the IC50 is greater than 30 µM in test [1], 10.2 µM in test [5] and 1.2 µM in test [7]. For the same molecule, the outcome in test [2] and in test [6] was Active.

As for `CN(C)CCN1C(=O)c2cccc3cc(C#Cc4ccc(O)cc4)cc(c23)C1=O`, the IC50 in test [1] is 2.1 µM; in test [5], 5.7 µM; in test [7] it was 13.1 µM. For the same molecule, the result in test [2] and in test [6] was inactive.

For the molecule `COc1ccc(C#Cc2cc3c4c(cccc4c2)C(=O)N(CCN(C)C)C3=O)cc1`, the IC50 came to 2.1 µM in test [1], 1.1 µM in test [5] and 2 µM in test [7]. In addition, the outcome in test [2] and in test [6] was Active.
